Measured values published in article PMC11714696 (2024).

How the values were obtained:
[1] = tested on: poly(A·U) (RNA, polymer) A/U; assay: absorption titration, Benesi-Hildebrand; details: Na+ (25 mM NaCl, 10 mM sodium cacodylate); 10 mM cacodylate pH 7.0, 0.1 mM Na2EDTA; RNA concentration by ε260 14280; per base
[2] = tested on: poly(I·C) (RNA, polymer, inosine (hypoxanthine base) at every position of strand 1 (written as G)) G/C; assay: absorption titration, Benesi-Hildebrand; details: Na+ (25 mM NaCl, 10 mM sodium cacodylate); 10 mM cacodylate pH 7.0, 0.1 mM Na2EDTA; RNA concentration by ε260 10000; per base
[3] = tested on: poly(I·C) (RNA, polymer, inosine (hypoxanthine base) at every position of strand 1 (written as G)) G/C; assay: UV melting at 260 nm; details: Na+ (25 mM NaCl, 10 mM sodium cacodylate); 10 mM cacodylate pH 7.0; 10 and 15 μM Nile blue; free Tm about 48.0 °C
[4] = tested on: poly(A·U) (RNA, polymer) A/U; assay: UV melting at 260 nm; details: Na+ (25 mM NaCl, 10 mM sodium cacodylate); 10 mM cacodylate pH 7.0; 10 and 15 μM Nile blue; free Tm about 46.0 °C
[5] = tested on: poly(A·U) (RNA, polymer) A/U; assay: fluorescence titration, Benesi-Hildebrand; details: Na+ (25 mM NaCl, 10 mM sodium cacodylate); 10 mM cacodylate pH 7.0, 0.1 mM Na2EDTA; RNA concentration by ε260 14280; per base
[6] = tested on: poly(I·C) (RNA, polymer, inosine (hypoxanthine base) at every position of strand 1 (written as G)) G/C; assay: fluorescence titration, Benesi-Hildebrand; details: Na+ (25 mM NaCl, 10 mM sodium cacodylate); 10 mM cacodylate pH 7.0, 0.1 mM Na2EDTA; RNA concentration by ε260 10000; per base

KBH [1]: 586000 M⁻¹
KBH [2]: 116000 M⁻¹
binding [3]: yes
binding [4]: yes
KBH [5]: 211000 M⁻¹
KBH [6]: 113000 M⁻¹
Structure (SMILES): CC[N+](CC)=c1ccc2nc3c(cc(N)c4ccccc43)oc-2c1
